The values below come from patent publication US8188102B2, “Amide derivative for inhibiting the growth of cancer cells” (Hanmi Holdings Co., Ltd., priority 2007, dated 2012).

Test [1] has as its system SW-620 colon/rectal cancer cell line. Nature of the test: Cancer cell growth inhibition, SW-620 (SRB). As to conditions: Homo sapiens, SW-620, 72 h, read-out: IC50 (nM) SW-620.
Test [2] deals with A431 skin cancer cell line. Nature of the test: Cancer cell growth inhibition, A431 (SRB). As to conditions: Homo sapiens, A-431, 72 h, read-out: ID50 (nM) A431.
Test [3] has as its system H1975 lung cancer cell line. Nature of the test: Cancer cell growth inhibition, H1975 (celltiter). To be noted: Homo sapiens, NCI-H1975, 48 h, read-out: IC50 (nM) H1975.
Experimental: The medium was removed from each well of the 96-well plate.
In case of H1975, the cells were diluted with a culture medium to a concentration of 50,000 cells/ml. 100 μl of the diluted cell solution was added to each well of a 96-well plate, and, after 1 day, was washed with a mixture of RPMI, 0.1% FBS and 1% penicillin-streptomycin (PS), followed by replacement of the medium. The plate was allowed to be kept overnight and be treated to various concentrations under the same medium condition for 48 hrs. Similarly to an MTT assay, 15 μl of a celltiter one shot solution (Promega) was added to each well, which was incubated for 2 to 3 hrs, and, then, the absorbance at 490 nm was determined.
The subject of test [4] is SK-Br3 breast cancer cell line. As to the kind of experiment: Cancer cell growth inhibition, SK-Br3 (SRB). As to conditions: Homo sapiens, SK-BR-3, 72 h, read-out: ID50 (nM) SK-Br3.

The structures appear in SMILES notation.

On to `CN(C)C/C=C/C(=O)Nc1cc2c(Nc3ccc(F)c(Cl)c3)ncnc2cc1O[C@H]1CCOC1` [BIBW2992, reference compound], for which, in test [1], the IC50 amounted to 2640 nM.
On to `COc1cc2ncnc(Nc3cccc(Cl)c3F)c2cc1OC1CCN(C(=O)CO)CC1` [Ex 1*], for which the IC50 in test [2] was 39 nM; in test [3] it was above 1000 nM; in test [4], 293 nM.
`C=CC(=O)N1CC[C@H](Oc2cc3c(Nc4ccc(Cl)c(Cl)c4F)ncnc3cc2OC)C1` [Example 8, 1-((3S)-3-(4-(3,4-dichloro-2-fluorophenylamino)-7-methoxyquinazolin-6-yloxy)pyrrolidin-1-yl)pro-2-pen-1-one]: the IC50 in test [1] was above 5000 nM.
On to `C=CC(=O)N1CC(Oc2cc3c(Nc4ccc(Cl)c(Cl)c4F)ncnc3cc2OC)C1` [Example 24, 1-(3-(4-(3,4-dichloro-2-fluorophenylamino)-7-methoxyquinazolin-6-yloxy)azetidin-1-yl)pro-2-pen-1-one], for which the IC50 is above 5000 nM in test [1] and 0.6 nM in test [4].
The corresponding values for `C=CC(=O)N1CC(Oc2cc3c(Nc4ccc(F)c(Cl)c4)ncnc3cc2OC)C1` [Example 25, 1-(3-(4-(3-chloro-4-fluorophenylamino)-7-methoxyquinazolin-6-yloxy)azetidin-1-yl)pro-2-pen-1-one] are above 5000 nM and 0.4 nM.
Turning to `C=C(NC(C)=O)C(=O)N1CC(Oc2cc3c(Nc4ccc(F)c(Cl)c4F)ncnc3cc2OC)C1` [Example 31, N-(3-(3-(4-(3-chloro-2,4-difluorophenylamino)-7-methoxyquinazolin-6-yloxy)azetidin-1-yl)-3-oxopro-1-en-2-yl)acetamide], the values for the IC50 in test [2], in test [3] and in test [4] were 3.1 nM, 50 nM and 2.5 nM, respectively.
In the case of `COc1cc2ncnc(Nc3ccc(F)c(Cl)c3F)c2cc1OC1CN(C(=O)/C=C\Cl)C1` [Example 32, (Z)-3-chloro-1-(3-(4-(3-chloro-2,4-difluorophenylamino)-7-methoxyquinazolin-6-yloxy)azetidin-1-yl)pro-2-pen-1-one], the IC50 in test [2] was determined as 2.4 nM; in test [3], 19 nM; in test [4], 2.2 nM.
On to `C=CC(=O)N1CCC(Oc2cc3c(Nc4cccc(Cl)c4)ncnc3cc2OC)CC1` [Example 43, 1-(4-(4-(3-chlorophenylamino)-7-methoxyquinazolin-6-yloxy)piperidin-1-yl)pro-2-pen-1-one], for which the IC50 was above 5000 nM in test [1] and 0.7 nM in test [4].
As to `C=CC(=O)N1CC[C@H](Oc2cc3c(Nc4ccc(F)c(Cl)c4F)ncnc3cc2OC)C[C@H]1C(=O)OC` [Example 119, (2S,4S)-methyl 1-acryloyl-4-(4-(3-chloro-2,4-difluorophenylamino)-7-methoxyquinazolin-6-yloxy)piperidin-2-carboxylate], the IC50 stood at 5 nM in test [2] and 6 nM in test [4].
In the case of `C=CC(=O)N1CC[C@H](Oc2cc3c(Nc4ccc(F)c(Cl)c4F)ncnc3cc2OC)C[C@H]1C(=O)NC` [Example 121, (2S,4S)-1-acryloyl-4-(4-(3-chloro-2,4-difluorophenylamino)-7-methoxyquinazolin-6-yloxy)-N-methylpiperidin-2-carboxamide], the IC50 is 2.2 nM in test [2] and 2.5 nM in test [4].
Turning to `C=CC(=O)N1CC[C@H](Oc2cc3c(Nc4ccc(F)c(Cl)c4F)ncnc3cc2OC)C[C@H]1C(=O)NCC` [Example 122, (2S,4S)-1-acryloyl-4-(4-(3-chloro-2,4-difluorophenylamino)-7-methoxyquinazolin-6-yloxy)-N-ethylpiperidin-2-carboxamide], the IC50 in test [2] was 8 nM; in test [4] it was 2.3 nM.
The corresponding values for `C=CC(=O)N1CC[C@H](Oc2cc3c(Nc4ccc(F)c(Cl)c4F)ncnc3cc2OC)C[C@H]1C(=O)NCCC` [Example 123, (2S,4S)-1-acryloyl-4-(4-(3-chloro-2,4-difluorophenylamino)-7-methoxyquinazolin-6-yloxy)-N-propylpiperidin-2-carboxamide] are 12 nM and 5 nM.
`C=CC(=O)N1CC[C@H](Oc2cc3c(Nc4ccc(F)c(Cl)c4F)ncnc3cc2OC)C[C@H]1C(=O)NC(C)C` [Example 124, (2S,4S)-1-acryloyl-4-(4-(3-chloro-2,4-difluorophenylamino)-7-methoxyquinazolin-6-yloxy)-N-isopropylpiperidin-2-carboxamide]: the IC50 was found to be 7.5 nM in test [2] and 2.8 nM in test [4].
On the same counts, the results for `C=CC(=O)N1CC[C@H](Oc2cc3c(Nc4ccc(F)c(Cl)c4F)ncnc3cc2OC)C[C@H]1C(=O)NO` [Example 125, (2S,4S)-1-acryloyl-4-(4-(3-chloro-2,4-difluorophenylamino)-7-methoxyquinazolin-6-yloxy)-N-hydroxypiperidin-2-carboxamide] are 10 nM and 1 nM.
The corresponding values for `C=CC(=O)N1CC[C@H](Oc2cc3c(Nc4ccc(F)c(Cl)c4F)ncnc3cc2OC)C[C@H]1C(=O)NCCCO` [Example 131, (2S,4S)-1-acryloyl-4-(4-(3-chloro-2,4-difluorophenylamino)-7-methoxyquinazolin-6-yloxy)-N-(3-hydroxypropyl)piperidin-2-carboxamide] are 20 nM and 0.5 nM.
On the same counts, the results for `C=CC(=O)N1CC[C@H](Oc2cc3c(Nc4ccc(F)c(Cl)c4F)ncnc3cc2OC)C[C@H]1C(=O)NCCN1CCOCC1` [Example 132, (2S,4S)-1-acryloyl-4-(4-(3-chloro-2,4-difluorophenylamino)-7-methoxyquinazolin-6-yloxy)-N-(2-morpholinoethyl)piperidin-2-carboxamide] are 8.3 nM and 0.5 nM.
In the case of `C=CC(=O)N1CC[C@@H](Oc2cc3c(Nc4ccc(F)c(Cl)c4F)ncnc3cc2OC)C[C@@H]1C(=O)O` [Example 134, (2R,4R)-1-acryloyl-4-(4-(3-chloro-2,4-difluorophenylamino)-7-methoxyquinazolin-6-yloxy)piperidin-2-carboxylic acid], the IC50 worked out at 979 nM in test [2] and 4 nM in test [4].
On the same counts, the results for `C=CC(=O)N1CC[C@@H](Oc2cc3c(Nc4ccc(F)c(Cl)c4F)ncnc3cc2OC)C[C@@H]1C(=O)NO` [Example 137, (2R,4R)-1-acryloyl-4-(4-(3-chloro-2,4-difluorophenylamino)-7-methoxyquinazolin-6-yloxy)-N-hydroxypiperidin-2-carboxamide] are 1.7 nM and 1.3 nM.
The corresponding values for `C=CC(=O)N1CC[C@@H](Oc2cc3c(Nc4ccc(F)c(Cl)c4F)ncnc3cc2OC)C[C@@H]1C(=O)NCCS(C)(=O)=O` [Example 138, (2R,4R)-1-acryloyl-4-(4-(3-chloro-2,4-difluorophenylamino)-7-methoxyquinazolin-6-yloxy)-N-(2-(methylsulfonyl)ethyl)piperidin-2-carboxamide] are 2.4 nM and 1.3 nM.
With `C=CC(=O)N1CC[C@@H](Oc2cc3c(Nc4ccc(Br)cc4F)ncnc3cc2OC)C[C@@H]1C(N)=O` [Example 140, (2R,4R)-1-acryloyl-4-(4-(4-bromo-2-fluorophenylamino)-7-methoxyquinazolin-6-yloxy)piperidin-2-carboxamide], the values for the IC50 in test [2] and in test [4] were 1.1 nM and 0.3 nM, respectively.
With `CS(=O)(=O)CCNCc1ccc(-c2ccc3ncnc(Nc4ccc(OCc5cccc(F)c5)c(Cl)c4)c3c2)o1` [Lapatinib, reference compound], the IC50 in test [2] is 80 nM; in test [1], above 5000 nM; in test [4], 40 nM.
